Converted amounts (≈) assume the structure as drawn. Where two headings read alike, the source gives them in different places.
Experiments:
[1] = PBPK food effect modeling (Simcyp V17.1 and/or GastroPlus V9.5; Model 1 / Model 2); set-up: species or system human
[2] = not generated within this working group; ref Table I; cited from earlier work
[3] = cited from earlier work; for Observed AUC(0-inf) Fasted / Observed Cmax Fasted / Observed AUC(0-inf) Fed / Observed Cmax Fed / Observed AUC Ratios (Fed/Fasted) / Observed Cmax Ratios (Fed/Fasted): ref published clinical data (Table I)
[4] = system: Caco-2; conditions: not generated within this working group; ref Table I; cited from earlier work
[5] = pKa
[6] = set-up: method as in Table I reference column; conditions: not generated within this working group; ref Table I; cited from earlier work
[7] = Effective human jejunum permeability (Peff,man) used in the PBPK model; type: in vitro ADME; conditions: human, 1 h
Procedure: Permeation rates of the compounds, including reference compounds, were measured in the apical-to-basolateral (AB) direction. The donor and receiver wells were sampled immediately after application of the compound to the donor well to determine baseline concentrations, and again after 1 h. Quantification was done using high-performance liquid chromatography combined with mass spectrometry (HPLC-MS/MS) analysis and monolayer integrity was verified by analyzing the receiver samples for LuY fluorescence in a plate reader.

[8] = Solubility measurement in biorelevant media (FaSSIF-V2, FeSSIF-V2); conditions: 37 °C, thermodynamic from solid
Procedure: The solubility of the drug substances was determined in biorelevant media as well as in aqueous buffers at different pH. Fasted state simulated gastric fluid (FaSSGF) ([37]), fasted state simulated intestinal fluid (FaSSIF-V2) ([38]), and fed state simulated intestinal fluid (FeSSIF-V2) ([39]) were prepared according to the instructions provided by Biorelevant (Biorelevant.com Ltd., London, UK). […] For neutral compounds, solubility was determined at pH 2, pH 4, and pH 7.
For freely soluble compounds, the extent of solubilization was measured only up to 10 mg/mL.

[9] = clinically observed PK change (AUC, Cmax) fed vs fasted, compiled by literature search
[10] = direction, AUC and/or Cmax ratio fed to fasted, BE criteria 0.8–1.25, ref drug label
[11] = FaSSIF-V2 (fasted state simulated intestinal fluid), FaSSIF solubility
[12] = FeSSIF-V2 (fed state simulated intestinal fluid), FeSSIF solubility

Cc1ccc(-c2ncc(Cl)cc2-c2ccc(S(C)(=O)=O)cc2)cn1 [Etoricoxib]
AUC Ratio of Ratios (Sim'd / Obs'd) ([1]; Model 1): 1.05
Cmax Ratio of Ratios (Sim'd / Obs'd) ([1]; Model 1): 0.97
AUC Ratio of Ratios (Sim'd / Obs'd) ([1]; Model 2): 1.06
Cmax Ratio of Ratios (Sim'd / Obs'd) ([1]; Model 2): 1.25
Solubility at pH 6.5 [2]: 67^^ μg/ml
Observed AUC(0-inf) Fasted ([3]; Model 1): 44400 ng·h/mL
Observed Cmax Fasted ([3]; Model 1): 2890 ng/mL
Observed AUC(0-inf) Fed ([3]; Model 1): 42200 ng·h/mL
Observed Cmax Fed ([3]; Model 1): 1890 ng/mL
Observed AUC Ratios (Fed/Fasted) ([3]; Model 1): 0.95
Observed Cmax Ratios (Fed/Fasted) ([3]; Model 1): 0.65
Observed AUC(0-inf) Fasted ([3]; Model 2): 44400 ng·h/mL
Observed Cmax Fasted ([3]; Model 2): 2890 ng/mL
Observed AUC(0-inf) Fed ([3]; Model 2): 42200 ng·h/mL
Observed Cmax Fed ([3]; Model 2): 1890 ng/mL
Observed AUC Ratios (Fed/Fasted) ([3]; Model 2): 0.95
Observed Cmax Ratios (Fed/Fasted) ([3]; Model 2): 0.65
Food Effect [3, 9]: Negative (negative if ratio fasted > fed)
Food Effect [3, 10]: Negative (negative if ratio fasted > fed)
food effect (FE) direction ([3]; ref drug label): negative FE
Apparent permeability (Caco-2) [4]: 52.3 (Caco-2)^^ × 10^−6 cm/s
pKa ([5]; pKa (b, basic)): 4.5
FaSSIF solubility [6]: 67^^ μg/ml
FeSSIF solubility [6]: 95^^ μg/ml
Effective permeability [7]: 0.00048 cm/s

CCC(C)n1ncn(-c2ccc(N3CCN(c4ccc(OCC5COC(Cn6cncn6)(c6ccc(Cl)cc6Cl)O5)cc4)CC3)cc2)c1=O (centres unmarked) [Itraconazole]
AUC Ratio of Ratios (Sim'd / Obs'd) ([1]; Model 1): 0.82
Cmax Ratio of Ratios (Sim'd / Obs'd) ([1]; Model 1): 1.03
AUC Ratio of Ratios (Sim'd / Obs'd) ([1]; Model 2): 1.00
Cmax Ratio of Ratios (Sim'd / Obs'd) ([1]; Model 2): 1.02
Observed AUC(0-inf) Fasted ([3]; Model 1): 1880 ng·h/mL
Observed Cmax Fasted ([3]; Model 1): 140 ng/mL
Observed AUC(0-inf) Fed ([3]; Model 1): 3120 ng·h/mL
Observed Cmax Fed ([3]; Model 1): 239 ng/mL
Observed AUC Ratios (Fed/Fasted) ([3]; Model 1): 1.66
Observed Cmax Ratios (Fed/Fasted) ([3]; Model 1): 1.71
Observed AUC(0-inf) Fasted ([3]; Model 2): 1880 ng·h/mL
Observed Cmax Fasted ([3]; Model 2): 140 ng/mL
Observed AUC(0-inf) Fed ([3]; Model 2): 3120 ng·h/mL
Observed Cmax Fed ([3]; Model 2): 239 ng/mL
Observed AUC Ratios (Fed/Fasted) ([3]; Model 2): 1.66
Observed Cmax Ratios (Fed/Fasted) ([3]; Model 2): 1.71
Food Effect [3, 9]: Positive (positive if the ratio of fed > fasted)
Food Effect [3, 10]: Positive (positive if the ratio of fed > fasted)
pKa ([5]; pKa (b, basic)): 4.28
solubility [8, 11]: 1120 µg/mL (≈ 1.59 mM)
solubility [8, 12]: 3620 µg/mL (≈ 5.13 mM)
Effective permeability [7]: 0.00099 cm/s

CC[C@H]1OC(=O)[C@H](C)[C@@H](O[C@H]2C[C@@](C)(OC)[C@@H](O)[C@H](C)O2)[C@H](C)[C@@H](O[C@@H]2O[C@H](C)C[C@H](N(C)C)[C@H]2O)[C@](C)(OC)C[C@@H](C)C(=O)[C@H](C)[C@@H](O)[C@]1(C)O [Clarithromycin]
Observed AUC(0-inf) Fasted ([3]; Model 1): 12600 ng·h/mL
Observed Cmax Fasted ([3]; Model 1): 1650 ng/mL
Observed AUC(0-inf) Fed ([3]; Model 1): 15700 ng·h/mL
Observed Cmax Fed ([3]; Model 1): 2510 ng/mL
Observed AUC(0-inf) Fasted ([3]; Model 2): 12600 ng·h/mL
Observed Cmax Fasted ([3]; Model 2): 1650 ng/mL
Observed AUC(0-inf) Fed ([3]; Model 2): 15700 ng·h/mL
Observed Cmax Fed ([3]; Model 2): 2510 ng/mL
Food Effect [3, 9]: Positive (positive if the ratio of fed > fasted)
solubility [8, 11]: 132 µg/mL (≈ 0.176 mM)
solubility [8, 12]: 1660 µg/mL (≈ 2.21 mM)
Effective permeability [7]: 3e-05 cm/s

O=C1NC(=O)C(c2ccccc2)(c2ccccc2)N1 [Phenytoin]
AUC Ratio of Ratios (Sim'd / Obs'd) ([1]; Model 1): 0.95
Cmax Ratio of Ratios (Sim'd / Obs'd) ([1]; Model 1): 0.92
AUC Ratio of Ratios (Sim'd / Obs'd) ([1]; Model 2): 0.99
Cmax Ratio of Ratios (Sim'd / Obs'd) ([1]; Model 2): 1.00
Solubility at pH 6.5 [2]: 31^^ μg/ml
Observed AUC(0-inf) Fasted ([3]; Model 1): 104000 ng·h/mL
Observed Cmax Fasted ([3]; Model 1): 4920 ng/mL
Observed AUC(0-inf) Fed ([3]; Model 1): 127000 ng·h/mL
Observed Cmax Fed ([3]; Model 1): 6950 ng/mL
Observed AUC Ratios (Fed/Fasted) ([3]; Model 1): 1.22
Observed Cmax Ratios (Fed/Fasted) ([3]; Model 1): 1.41
Observed AUC(0-inf) Fasted ([3]; Model 2): 104000 ng·h/mL
Observed Cmax Fasted ([3]; Model 2): 4920 ng/mL
Observed AUC(0-inf) Fed ([3]; Model 2): 127000 ng·h/mL
Observed Cmax Fed ([3]; Model 2): 6950 ng/mL
Observed AUC Ratios (Fed/Fasted) ([3]; Model 2): 1.22
Observed Cmax Ratios (Fed/Fasted) ([3]; Model 2): 1.41
Food Effect [3, 9]: Positive (positive if the ratio of fed > fasted)
Food Effect [3, 10]: Positive (positive if the ratio of fed > fasted)
food effect (FE) direction ([3]; ref drug label): positive FE
pKa ([5]; pKa (a, acidic)): 8.06
FaSSIF solubility [6]: 39.6^^ μg/ml
FeSSIF solubility [6]: 49.5^^ μg/ml
Effective permeability [7]: 0.0004 cm/s

CN/C(=N/CCSCc1nc[nH]c1C)NC#N [Cimetidine]
AUC Ratio of Ratios (Sim'd / Obs'd) ([1]; Model 1): 1.14
Cmax Ratio of Ratios (Sim'd / Obs'd) ([1]; Model 1): 0.87
AUC Ratio of Ratios (Sim'd / Obs'd) ([1]; Model 2): 1.19
Cmax Ratio of Ratios (Sim'd / Obs'd) ([1]; Model 2): 1.10
Observed AUC(0-inf) Fasted ([3]; Model 1): 4880 ng·h/mL
Observed Cmax Fasted ([3]; Model 1): 900 ng/mL
Observed AUC(0-inf) Fed ([3]; Model 1): 4150 ng·h/mL
Observed Cmax Fed ([3]; Model 1): 810 ng/mL
Observed AUC Ratios (Fed/Fasted) ([3]; Model 1): 0.85
Observed Cmax Ratios (Fed/Fasted) ([3]; Model 1): 0.90
Observed AUC(0-inf) Fasted ([3]; Model 2): 5350 ng·h/mL
Observed Cmax Fasted ([3]; Model 2): 890 ng/mL
Observed AUC(0-inf) Fed ([3]; Model 2): 4580 ng·h/mL
Observed Cmax Fed ([3]; Model 2): 800 ng/mL
Observed AUC Ratios (Fed/Fasted) ([3]; Model 2): 0.86
Observed Cmax Ratios (Fed/Fasted) ([3]; Model 2): 0.90
Food Effect [3, 9]: None (none if no significant change in AUC and Cmax with food)
Apparent permeability (Caco-2) [4]: 5.4 (Caco-2)^^ × 10^−6 cm/s
pKa ([5]; pKa (b, basic)): 6.9
solubility [8, 11]: 22000 µg/mL (≈ 87.2 mM)
solubility [8, 12]: 21500 µg/mL (≈ 85.2 mM)

CC(C)NC[C@@H](O)c1ccc(NS(C)(=O)=O)cc1 [d-Sotalol]
Solubility at pH 6.5 [2]: 15,800^^ μg/ml
Observed AUC(0-inf) Fasted ([3]; Model 1): 15500 ng·h/mL
Observed Cmax Fasted ([3]; Model 1): 1200 ng/mL
Observed AUC(0-inf) Fed ([3]; Model 1): 12600 ng·h/mL
Food Effect [3, 9]: None (none if no significant change in AUC and Cmax with food)
pKa (b, basic) [5]: 9.72
pKa ([5]; pKa (a, acidic)): 8.28

CCOC(=O)C1=C[C@@H](OC(CC)CC)[C@H](NC(C)=O)[C@@H](N)C1 [Oseltamivir]
AUC Ratio of Ratios (Sim'd / Obs'd) ([1]; Model 1): 1.09
Cmax Ratio of Ratios (Sim'd / Obs'd) ([1]; Model 1): 1.34
Solubility at pH 6.5 [2]: 25,000^^ μg/ml
Observed AUC(0-inf) Fasted ([3]; Model 1): 6220 ng·h/mL
Observed Cmax Fasted ([3]; Model 1): 551 ng/mL
Observed AUC(0-inf) Fed ([3]; Model 1): 6070 ng·h/mL
Observed Cmax Fed ([3]; Model 1): 441 ng/mL
Observed AUC Ratios (Fed/Fasted) ([3]; Model 1): 0.98
Observed Cmax Ratios (Fed/Fasted) ([3]; Model 1): 0.80
Food Effect [3, 10]: None (none if no significant change in AUC and Cmax with food)
pKa ([5]; pKa (b, basic)): 7.7

CC(C)(CO)c1cc2cc(NC(=O)C3(c4ccc5c(c4)OC(F)(F)O5)CC3)c(F)cc2n1C[C@@H](O)CO [Tezacaftor]
AUC Ratio of Ratios (Sim'd / Obs'd) ([1]; Model 1): 0.92
Cmax Ratio of Ratios (Sim'd / Obs'd) ([1]; Model 1): 1.23
Solubility at pH 6.5 [2]: 110^^ μg/ml
Observed AUC(0-inf) Fasted ([3]; Model 1): 3970 ng·h/mL
Observed Cmax Fasted ([3]; Model 1): 2340 ng/mL
Observed AUC(0-inf) Fed ([3]; Model 1): 4360 ng·h/mL
Observed Cmax Fed ([3]; Model 1): 1890 ng/mL
Observed AUC Ratios (Fed/Fasted) ([3]; Model 1): 1.10
Observed Cmax Ratios (Fed/Fasted) ([3]; Model 1): 0.81
Food Effect [3, 9]: None (none if no significant change in AUC and Cmax with food)
Food Effect [3, 10]: None (none if no significant change in AUC and Cmax with food)
Apparent permeability (Caco-2) [4]: 4.2 (Caco-2)^^ × 10^−6 cm/s
pKa (ionisation state in words) [5]: Neutral
FaSSIF solubility [6]: 119^^ μg/ml
FeSSIF solubility [6]: 4783^^ μg/ml

Reference: paper PMC7520419 (The AAPS Journal, 2020)
